The source of these data is paper PMC7180728, “Novel Anthraquinone Compounds Inhibit Colon Cancer Cell Proliferation via the Reactive Oxygen Species/JNK Pathway” (Molecules, 2020).

The test system of data set [1] is JNK. Put plainly: Western blot, phosphorylated and total JNK. The data set is classed as cell-based, human. The settings on record: HCT116, western blot. An excerpt:
To further elucidate the mechanism by which 8a inhibits proliferation and induces apoptosis of HCT116 cells, the levels of phosphorylated and total JNK protein were examined by western blot analysis. […] Phosphorylation of JNK activated by the ROS pathway results in overexpression of tumor suppressor factors, thereby inducing apoptosis. In addition, JNK phosphorylation is associated with ROS production. To determine whether ROS production contributes to JNK1/2 phosphorylation and its related mechanisms, we blocked 8a-induced ROS production in HCT116 cells and then analyzed the changes in JNK 1/2 phosphorylation by western blotting. […] Furthermore, pre-treatment of cells with NAC reduced the levels of p-JNK induced by 8a.
The expression of signaling pathway-related proteins was detected by western blot analysis. Cell (1 × 10^6) were plated in 90-mm dishes and treated with 8a for 24 h. The cells were treated with NAC in the same way as in step 4.7. Resuspend the cells in Buffer A (1 mM EDTA, 1 mM PMSF, 0.28 μg/mL apotinin, 50 μg/mL leupeptin, 7 μg/mL pepstain A) and transferred to a 1 mL glass homogenizer and pull up and down 30 times in an ice bath. Cells were collected and centrifuged (1000 g × 10 min, 4 °C). The obtained supernatant and precipitate were the crude cytoplasm and mitochondria, respectively. The cytosolic fraction was transferred to an ultra-ion tube and centrifuged (100,000g × 1 hr, 4 °C), and the resulting supernatant was the purified cytosolic fraction. The mitochondrial pellet was resuspended in Buffer B (1mM EGTA, 1mM PMSF, 0.28 μg/mL apotinin, 50 μg/mL leupeptin, 7 μg/mL pepstain A), centrifuged (10,000g × 10 min, 4 °C), and repeated 3 times. The mitochondria pellet was lysed in cell lysate buffer (1% NP-40, 2 μg/mL aprotinin, 2 μg/mL leupeptin, 1mM EDTA, 1mM Na vanadate). Protein concentrations in the supernatant were determined by using a Minbio BCA protein assay kit. Protein were separated by SDS-PAGE and transferred to a PVDF membrane. The membrane was blocked, and incubated with primary detection antibodies overnight at 4 °C. […]

Data set [2] has as its system HepG2. Put plainly: MTT cell proliferation assay, HepG2. The data set is classed as cell-based. Conditions: Homo sapiens, HepG2 liver cancer, 48 h. Here is the method:
(§1) The effects of the synthesized amide anthraquinone derivatives on the proliferative activity of eight human cancerous cell lines (EC9706, MCF-7, SGC-7901, HepG2, QBC939, HeLa, HCT116 and SW480) in addition to two normal human cell lines (colorectal FHC and liver HL7702) were evaluated using the standard MTT assay.
(§2) The human esophageal cancer cell line EC9706 was obtained from Cancer Hospital and Institute by Prof. Ming Rong Wang, Chinese Academy Medical of Sciences. The human colorectal carcinoma cell lines HCT116 and SW480, hepatoma cell line HepG2, cervical carcinoma cell line HeLa, breast cancer cell line MCF-7, gastric cancer cell line SGC-7901, cholangiocarcinoma cell line QBC939, normal fetal colon cell line FHC and liver cell line HL-7702 were obtained from the Cell Bank of the Shanghai Chinese Academy of Sciences. All cells were cultured in RPMI 1640 medium containing 100 U/mL penicillin and streptomycin and 10% fetal bovine serum and maintained at 37°C under a 5% CO2 atmosphere.
(§3) We analyzed the inhibitory effects of eight anthraquinone-amino acid derivatives on the proliferation of eight tumor cell lines and two normal cell lines in vitro using MTT assays. Cells were added to a 96-well plate with (5,000 cells per well in 100 µL RPMI-1640 medium). Cells were treated with different concentrations (10–100 μg/mL) of 8a–8h for 48 h and then incubated with 20 μL MTT (5 mg/mL) for another 4 h at 37°C. DMSO (150 μL) was then added to each well to dissolve the formazan crystals. The absorbance of each well was read at 490 nm on a microtiter plate ELISA reader. The mean values were obtained from a minimum of three parallel experiments. IC50 values were calculated.
A general note: Tetrazolium assays rely on reduction of a dye to a coloured formazan, in cell work by metabolically active cells.

In data set [3] the test system is HCT116 cells. Nature of the data set: Annexin V/PI apoptosis assay by flow cytometry. It counts as cell-based, human. Conditions: 24 h, control 0.06%. Here is the method: Natural anthraquinones, such as rubiadin, physcion, emodin and soranjidiol, have been reported to induce apoptosis in tumor cells. Therefore, after detecting the effect of 8a on tumor cell proliferation, we investigated correlation between the anticancer activity of compound 8a and apoptosis. The effects of compound 8a treatment on HCT116 cell apoptosis were detected by flow cytometry following Annexin V/PI staining.
HCT116 cells were added to a 6-well plate (5 × 10^6/well). After attachment, the cells were treated with 8a for 24 h. Then, the cells were collected and centrifuged (10,000 g × 5 min). Cells were washed once with 1 mL of PBS. Cells were suspended in 500 μL binding buffer (containing 5 μL Annexin V-FITC and 1 μL propidium iodide [PI]) and incubated for 30 min in the dark. Apoptosis cells were detected by flow cytometry (FACSCalibur, BD, The United States).

The test system of data set [4] is EC9708. Put plainly: MTT cell proliferation assay, EC9706 (Table 1: EC9708). The data set is classed as cell-based. The settings on record: Homo sapiens, EC9708 esophageal cancer, 48 h. Here is the method: as §1, §2, §3
The subject of data set [5] is HCT116 cells. Put plainly: MTT cell viability with or without SP600125. The settings on record: 8a alone, 24 h, compared with the control. The data set is classed as cell-based, human. Here is the method: Furthermore, to further investigate whether activation of phosphorylated JNK affects cell viability, HCT116 was co-treated with 8a and SP600125 (JNK inhibitor), and the effect of phosphorylated JNK inactivation on HCT116 cell activity was examined by MTT. […] Following co-treatment with 8a and SP600126, the rate cell viability was 55%. The inhibitory proliferation activty of 8a were partially weakened by the usage of 5 μM Sp600125.
Figure 9 The effect of 8a treatment on phosphorylated JNK and JNK expression levels. (A) Western blot analysis of phosphorylated JNK and JNK expression levels of in HCT116 cells treated with 20 μg/mL 8a for time-periods; (B) The expression levels of the phospho-JNK proteins were determined after treatment of HCT116 cells with 20 μg/mL 8a with or without NAC. Data represent the mean ± standard deviation of three independent experiments; (C) Grayscale analysis of the relative protein level of phosphorylated JNK. Data represent the mean ± standard deviation of three independent experiments. * p < 0.05; (D) MTT assay of HCT116 cells viability following treatment with 8a and SP600125 for 24 h.

Each structure is given as a SMILES string. Converted amounts (≈) assume the structure as drawn.

What is called IC50 is the concentration that gives 50% inhibition. In general, cell viability refers to a read-out of living cells in per cent, often relative to untreated cells. Low values mean more harm to the cells, high ones less harm to the cells. Consider `CC(C)CC(NC(=O)c1ccc2c(c1[N+](=O)[O-])C(=O)c1ccccc1C2=O)C(=O)O` (stereo not drawn) [Compound 8a, N-[(9,10-dihydro-1-nitro-9,10-dioxo-2-anthracenyl)carbonyl-leucine]], for which, in data set [1] (20 μg/mL, time course), the “levels of phosphorylated JNK” value is listed as “gradually increased with time”. The “total JNK levels” value in data set [1] (20 μg/mL, time course) was “not altered”. The “levels of p-JNK induced by 8a after NAC pre-treatment” value in data set [1] (8a 20 μg/mL with NAC pre-treatment) is listed as “reduced”. Besides, the IC50 in data set [2] amounted to 44.65 ± 0.03 µg/mL (≈ 109 µM); in data set [4], 44 ± 0.61 µg/mL (≈ 107 µM). For the same molecule, the rate of apoptosis in data set [3] (10 μg/mL) amounted to 11.24%; in data set [3] (20 μg/mL), 18.97%; in data set [3] (40 μg/mL), 26.94%. Besides, the cell viability in data set [5] was 39%.
